These results are taken from ChEMBL document CHEMBL1201862, “PubChem BioAssay data set” (2004).

Assay [1] addresses T1, Neuropeptide Y receptor type 1 (Homo sapiens, UniProt P25929).
T1 sequence (P25929 whole entry): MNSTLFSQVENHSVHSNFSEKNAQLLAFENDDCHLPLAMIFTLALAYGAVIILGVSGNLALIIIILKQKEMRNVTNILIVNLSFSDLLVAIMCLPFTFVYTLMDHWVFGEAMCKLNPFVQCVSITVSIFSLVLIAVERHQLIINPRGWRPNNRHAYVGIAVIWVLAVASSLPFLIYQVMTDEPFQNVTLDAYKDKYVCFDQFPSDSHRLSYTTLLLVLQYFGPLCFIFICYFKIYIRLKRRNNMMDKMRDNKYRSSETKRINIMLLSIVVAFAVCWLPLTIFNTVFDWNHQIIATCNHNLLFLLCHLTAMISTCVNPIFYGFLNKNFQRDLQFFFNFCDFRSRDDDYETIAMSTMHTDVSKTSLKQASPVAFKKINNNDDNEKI
It counts as functional.

Assay [2] has as its target T2, Neuropeptide Y receptor type 2 (Homo sapiens, UniProt P49146).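 Also: HEK293 cells expressing the receptor and a CNG channel; stimulus was NPY near EC95 followed by isoproterenol to raise cAMP; antagonist potency measured as restoring cAMP signal that NPY suppresses.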
T2 sequence (P49146 whole entry): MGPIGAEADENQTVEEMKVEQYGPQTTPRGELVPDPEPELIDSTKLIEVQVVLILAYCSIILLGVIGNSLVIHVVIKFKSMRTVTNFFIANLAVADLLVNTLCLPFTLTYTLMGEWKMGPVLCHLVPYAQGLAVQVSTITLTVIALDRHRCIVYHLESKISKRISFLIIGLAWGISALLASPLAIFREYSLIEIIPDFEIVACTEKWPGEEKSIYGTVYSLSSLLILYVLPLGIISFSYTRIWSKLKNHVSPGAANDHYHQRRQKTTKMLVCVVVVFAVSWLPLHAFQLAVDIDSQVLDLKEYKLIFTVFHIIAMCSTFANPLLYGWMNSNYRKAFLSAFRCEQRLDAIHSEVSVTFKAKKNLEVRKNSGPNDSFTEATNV
It counts as functional, cell-based.

The target in assay [3] is T3, Short transient receptor potential channel 4 (Mus musculus, UniProt Q9QUQ5).
T3 sequence (Q9QUQ5 whole entry): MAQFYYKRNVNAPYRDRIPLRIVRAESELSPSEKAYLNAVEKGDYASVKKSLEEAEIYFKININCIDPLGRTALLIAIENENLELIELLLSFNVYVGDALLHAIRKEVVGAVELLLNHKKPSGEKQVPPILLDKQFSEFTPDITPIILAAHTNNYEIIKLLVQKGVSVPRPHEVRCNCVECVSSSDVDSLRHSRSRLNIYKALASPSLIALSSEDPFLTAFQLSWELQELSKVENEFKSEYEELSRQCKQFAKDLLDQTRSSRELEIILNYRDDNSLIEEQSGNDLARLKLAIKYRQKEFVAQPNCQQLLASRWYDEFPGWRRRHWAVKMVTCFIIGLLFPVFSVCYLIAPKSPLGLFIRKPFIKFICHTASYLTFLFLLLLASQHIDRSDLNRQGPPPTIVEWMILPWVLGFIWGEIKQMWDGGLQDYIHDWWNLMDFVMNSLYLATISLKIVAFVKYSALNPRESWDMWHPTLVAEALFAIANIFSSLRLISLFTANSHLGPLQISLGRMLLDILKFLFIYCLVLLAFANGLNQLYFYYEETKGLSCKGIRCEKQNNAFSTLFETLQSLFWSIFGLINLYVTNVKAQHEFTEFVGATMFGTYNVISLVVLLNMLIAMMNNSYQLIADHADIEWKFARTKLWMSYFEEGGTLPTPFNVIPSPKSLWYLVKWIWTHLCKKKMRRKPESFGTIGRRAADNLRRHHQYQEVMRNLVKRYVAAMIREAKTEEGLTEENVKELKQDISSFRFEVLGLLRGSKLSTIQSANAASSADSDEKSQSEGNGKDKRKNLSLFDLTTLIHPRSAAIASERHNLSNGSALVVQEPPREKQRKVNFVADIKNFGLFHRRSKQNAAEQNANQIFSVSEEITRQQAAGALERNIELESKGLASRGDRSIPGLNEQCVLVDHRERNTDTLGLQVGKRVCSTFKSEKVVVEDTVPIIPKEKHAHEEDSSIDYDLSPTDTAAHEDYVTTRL
As to the kind of experiment: mouse TRPC4 channel inhibitors, dose response, cell-based, HEK293 TRPC4/mu-opioid, Fluo-4 calcium (AID 434942).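 Also: potency of inhibitors blocking the TRPC4 calcium response.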 It counts as functional.

A further assay has as its target T4, Aspartyl aminopeptidase (Plasmodium falciparum 3D7, UniProt Q8I2J3).
T4 sequence (Q8I2J3 whole entry): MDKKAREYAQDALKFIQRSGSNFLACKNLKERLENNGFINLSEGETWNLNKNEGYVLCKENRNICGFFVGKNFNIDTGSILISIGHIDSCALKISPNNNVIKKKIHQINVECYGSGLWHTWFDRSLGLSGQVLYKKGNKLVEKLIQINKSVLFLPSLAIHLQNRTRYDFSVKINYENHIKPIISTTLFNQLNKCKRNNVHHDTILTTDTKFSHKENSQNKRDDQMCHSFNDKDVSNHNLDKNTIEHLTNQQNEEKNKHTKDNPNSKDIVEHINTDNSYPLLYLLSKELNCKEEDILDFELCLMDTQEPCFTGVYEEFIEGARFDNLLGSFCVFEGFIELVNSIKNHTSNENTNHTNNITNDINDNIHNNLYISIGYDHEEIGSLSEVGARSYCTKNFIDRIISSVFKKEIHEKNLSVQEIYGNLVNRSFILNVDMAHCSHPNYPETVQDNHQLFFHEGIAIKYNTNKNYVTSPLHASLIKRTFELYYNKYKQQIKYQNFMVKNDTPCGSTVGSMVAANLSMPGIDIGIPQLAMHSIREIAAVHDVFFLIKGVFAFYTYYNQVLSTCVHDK

A further assay addresses Procathepsin L (Homo sapiens, UniProt P07711).
In assay [4] the target is T5, Rac GTPase-activating protein 1 (Homo sapiens, UniProt Q9H0H5).
T5 sequence (Q9H0H5 whole entry): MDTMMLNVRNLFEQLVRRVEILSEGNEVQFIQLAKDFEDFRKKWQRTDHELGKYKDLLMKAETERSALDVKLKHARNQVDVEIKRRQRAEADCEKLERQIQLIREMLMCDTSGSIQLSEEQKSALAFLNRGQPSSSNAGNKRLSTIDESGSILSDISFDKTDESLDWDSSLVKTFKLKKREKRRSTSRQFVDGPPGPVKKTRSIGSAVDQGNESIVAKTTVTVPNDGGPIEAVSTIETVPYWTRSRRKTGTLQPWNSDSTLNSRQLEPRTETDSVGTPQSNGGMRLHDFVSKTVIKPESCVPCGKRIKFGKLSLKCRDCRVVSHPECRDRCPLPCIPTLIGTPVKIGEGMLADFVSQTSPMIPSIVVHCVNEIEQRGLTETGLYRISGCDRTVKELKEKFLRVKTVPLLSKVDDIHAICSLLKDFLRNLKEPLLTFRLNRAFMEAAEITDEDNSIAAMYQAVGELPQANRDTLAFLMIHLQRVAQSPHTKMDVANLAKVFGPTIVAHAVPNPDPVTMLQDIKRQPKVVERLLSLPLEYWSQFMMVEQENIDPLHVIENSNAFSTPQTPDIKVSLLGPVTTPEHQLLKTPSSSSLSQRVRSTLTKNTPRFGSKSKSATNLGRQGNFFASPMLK
As to the kind of experiment: MgcRacGAP GTPase-activating activity inhibitors, confirmation, biochemical, ADP Hunter fluorescence, primary and confirmatory (AID 624330). It counts as functional.

The target in a further assay is Albumin (Bos taurus, UniProt P02769). As to the kind of experiment: Counterscreen for inhibitors of T-cell receptor (TCR)-CD3 interaction: Fluorescence-based biochemical high throughput dose response assay to identify inhibitors of T-cell receptor (TCR)-CD3 interaction using a TAMRA-labeled BSA probe. It counts as functional.
Chain of Albumin (P02769 whole entry): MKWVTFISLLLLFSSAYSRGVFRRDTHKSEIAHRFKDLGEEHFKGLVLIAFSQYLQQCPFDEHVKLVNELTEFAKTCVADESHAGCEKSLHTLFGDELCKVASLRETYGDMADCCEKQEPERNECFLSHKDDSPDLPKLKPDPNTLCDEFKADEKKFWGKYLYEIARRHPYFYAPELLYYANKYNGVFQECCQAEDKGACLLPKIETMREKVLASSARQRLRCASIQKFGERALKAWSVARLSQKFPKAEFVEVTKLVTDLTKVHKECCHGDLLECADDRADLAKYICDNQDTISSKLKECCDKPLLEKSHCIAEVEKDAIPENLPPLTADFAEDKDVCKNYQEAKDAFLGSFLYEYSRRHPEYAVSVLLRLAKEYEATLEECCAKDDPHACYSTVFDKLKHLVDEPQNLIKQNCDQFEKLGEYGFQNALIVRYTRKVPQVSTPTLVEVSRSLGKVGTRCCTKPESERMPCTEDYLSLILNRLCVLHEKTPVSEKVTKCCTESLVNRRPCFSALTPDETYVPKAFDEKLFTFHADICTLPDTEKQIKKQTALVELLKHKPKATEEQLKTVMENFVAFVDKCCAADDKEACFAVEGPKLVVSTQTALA
In assay [5] the target is T6, Histone-lysine N-methyltransferase NSD2 (Homo sapiens, UniProt O96028).
T6 sequence (O96028 whole entry): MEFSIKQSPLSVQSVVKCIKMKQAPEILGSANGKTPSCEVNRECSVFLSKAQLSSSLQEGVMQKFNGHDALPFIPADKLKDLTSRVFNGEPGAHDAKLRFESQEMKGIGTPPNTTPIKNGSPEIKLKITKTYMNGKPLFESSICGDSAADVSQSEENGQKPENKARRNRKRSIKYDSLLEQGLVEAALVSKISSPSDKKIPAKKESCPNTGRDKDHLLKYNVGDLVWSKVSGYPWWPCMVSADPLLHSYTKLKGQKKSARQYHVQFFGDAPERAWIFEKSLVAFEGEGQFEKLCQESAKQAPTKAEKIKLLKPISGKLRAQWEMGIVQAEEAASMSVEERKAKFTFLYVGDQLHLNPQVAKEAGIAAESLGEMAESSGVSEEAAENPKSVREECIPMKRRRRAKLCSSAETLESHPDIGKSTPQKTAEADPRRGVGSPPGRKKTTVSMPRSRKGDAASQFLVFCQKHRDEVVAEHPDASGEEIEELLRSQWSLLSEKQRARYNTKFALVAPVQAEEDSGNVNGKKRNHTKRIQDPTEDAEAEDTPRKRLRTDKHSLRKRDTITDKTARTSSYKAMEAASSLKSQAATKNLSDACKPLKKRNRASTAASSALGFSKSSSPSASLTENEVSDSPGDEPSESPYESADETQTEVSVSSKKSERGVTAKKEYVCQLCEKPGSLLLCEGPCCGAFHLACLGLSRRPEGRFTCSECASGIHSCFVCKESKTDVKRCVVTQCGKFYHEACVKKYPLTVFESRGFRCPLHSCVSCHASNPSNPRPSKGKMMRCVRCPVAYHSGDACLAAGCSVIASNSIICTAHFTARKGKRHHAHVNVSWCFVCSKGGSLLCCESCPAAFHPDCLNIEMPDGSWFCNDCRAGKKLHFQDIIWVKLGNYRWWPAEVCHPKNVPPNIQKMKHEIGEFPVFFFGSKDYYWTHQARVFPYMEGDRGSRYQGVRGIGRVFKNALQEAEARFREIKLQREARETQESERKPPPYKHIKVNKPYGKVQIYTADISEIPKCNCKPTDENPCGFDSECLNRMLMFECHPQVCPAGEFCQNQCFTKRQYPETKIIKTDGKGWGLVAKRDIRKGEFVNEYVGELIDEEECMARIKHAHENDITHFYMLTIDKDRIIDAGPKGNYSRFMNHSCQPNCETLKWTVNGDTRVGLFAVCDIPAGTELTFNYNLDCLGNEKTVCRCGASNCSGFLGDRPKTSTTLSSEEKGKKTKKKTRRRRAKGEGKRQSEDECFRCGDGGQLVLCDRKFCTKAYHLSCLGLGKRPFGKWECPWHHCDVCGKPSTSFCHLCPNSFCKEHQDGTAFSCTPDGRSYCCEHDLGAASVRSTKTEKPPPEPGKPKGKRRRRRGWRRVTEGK
In kind it is biochemical.

The next assay addresses T7, Mucolipin-3 (Homo sapiens, UniProt Q8TDD5).
T7 sequence (Q8TDD5 whole entry): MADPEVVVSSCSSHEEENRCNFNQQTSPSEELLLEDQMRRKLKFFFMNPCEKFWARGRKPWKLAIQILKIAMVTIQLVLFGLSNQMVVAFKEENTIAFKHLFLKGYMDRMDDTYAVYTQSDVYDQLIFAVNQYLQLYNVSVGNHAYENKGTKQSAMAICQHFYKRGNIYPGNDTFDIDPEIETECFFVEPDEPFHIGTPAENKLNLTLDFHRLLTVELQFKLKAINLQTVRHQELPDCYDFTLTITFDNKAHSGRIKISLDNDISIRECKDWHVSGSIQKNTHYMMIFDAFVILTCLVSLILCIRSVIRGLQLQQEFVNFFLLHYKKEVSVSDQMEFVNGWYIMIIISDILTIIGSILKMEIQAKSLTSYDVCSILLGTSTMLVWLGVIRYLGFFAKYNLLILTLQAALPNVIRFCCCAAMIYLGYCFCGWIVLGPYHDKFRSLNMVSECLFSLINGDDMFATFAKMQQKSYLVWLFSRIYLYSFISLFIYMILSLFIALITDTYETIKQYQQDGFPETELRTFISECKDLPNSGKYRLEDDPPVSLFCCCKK
As to the kind of experiment: Dose response cell-based high-throughput screening assay for agonists of the transient receptor potential channel ML3 (TRPML3). [Related pubchem assays: 1526, 1424, 1448 ]. In kind it is functional.

The target in the next assay is Ion channel NompC (Danio rerio, UniProt Q7T1G6). As to the kind of experiment: Fluorescence counterscreen assay for TRPML3 agonists: dose response cell-based high-throughput screening assay to identify agonists of the transient receptor potential channel N1 (TRPN1). [Related pubchem assays: 1526, 1424, 1448 ]. It counts as functional.
Chain of Ion channel NompC (Q7T1G6 whole entry): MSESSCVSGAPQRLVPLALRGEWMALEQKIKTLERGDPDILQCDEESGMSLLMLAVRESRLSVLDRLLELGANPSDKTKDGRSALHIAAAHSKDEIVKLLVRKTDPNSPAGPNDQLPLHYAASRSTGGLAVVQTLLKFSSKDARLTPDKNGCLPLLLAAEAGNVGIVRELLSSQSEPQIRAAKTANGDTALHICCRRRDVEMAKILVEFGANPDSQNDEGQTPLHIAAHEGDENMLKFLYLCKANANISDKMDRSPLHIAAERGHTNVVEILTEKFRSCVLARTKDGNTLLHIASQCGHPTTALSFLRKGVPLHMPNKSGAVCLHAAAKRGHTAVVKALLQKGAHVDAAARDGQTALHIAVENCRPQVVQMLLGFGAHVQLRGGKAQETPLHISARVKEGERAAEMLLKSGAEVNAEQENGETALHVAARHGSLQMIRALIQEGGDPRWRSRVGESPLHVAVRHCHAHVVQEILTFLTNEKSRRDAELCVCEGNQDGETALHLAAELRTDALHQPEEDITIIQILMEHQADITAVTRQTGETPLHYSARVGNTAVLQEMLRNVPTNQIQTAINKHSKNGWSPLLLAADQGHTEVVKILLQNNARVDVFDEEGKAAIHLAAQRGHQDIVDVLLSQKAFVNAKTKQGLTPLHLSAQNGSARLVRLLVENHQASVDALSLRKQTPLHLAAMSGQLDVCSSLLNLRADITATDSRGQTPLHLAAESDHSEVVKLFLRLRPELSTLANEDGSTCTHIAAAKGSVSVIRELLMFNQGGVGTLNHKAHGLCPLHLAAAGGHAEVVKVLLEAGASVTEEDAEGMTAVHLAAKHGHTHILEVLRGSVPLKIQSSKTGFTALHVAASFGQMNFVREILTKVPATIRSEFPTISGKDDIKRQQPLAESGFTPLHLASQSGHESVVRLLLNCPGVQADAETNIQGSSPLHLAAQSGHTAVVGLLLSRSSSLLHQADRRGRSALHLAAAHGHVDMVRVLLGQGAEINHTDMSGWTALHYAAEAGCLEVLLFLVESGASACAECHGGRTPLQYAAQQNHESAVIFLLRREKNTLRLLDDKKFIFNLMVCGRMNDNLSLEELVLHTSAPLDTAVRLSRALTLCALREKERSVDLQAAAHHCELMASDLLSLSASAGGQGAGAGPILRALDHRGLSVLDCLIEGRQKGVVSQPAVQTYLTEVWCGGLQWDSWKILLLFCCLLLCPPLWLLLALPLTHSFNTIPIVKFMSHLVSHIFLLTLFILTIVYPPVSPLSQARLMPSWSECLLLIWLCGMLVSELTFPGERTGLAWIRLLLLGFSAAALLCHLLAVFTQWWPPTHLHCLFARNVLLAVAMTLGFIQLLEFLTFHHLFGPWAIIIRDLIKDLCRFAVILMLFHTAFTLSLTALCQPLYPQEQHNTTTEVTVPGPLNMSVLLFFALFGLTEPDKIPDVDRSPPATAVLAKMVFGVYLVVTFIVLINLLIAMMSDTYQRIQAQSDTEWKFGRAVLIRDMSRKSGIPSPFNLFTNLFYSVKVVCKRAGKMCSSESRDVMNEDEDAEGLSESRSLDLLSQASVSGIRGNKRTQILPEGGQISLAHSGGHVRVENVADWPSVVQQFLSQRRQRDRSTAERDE
Assay [6] has as its target Voltage-gated inwardly rectifying potassium channel KCNH2 (Homo sapiens, UniProt Q12809). Conditions: Potency.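 Also: confirmatory quantitative high-throughput screen measuring inhibition of hERG channel activity.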
Assay [7] concerns the target Luciferin 4-monooxygenase (Photinus pyralis, UniProt P08659). As to the kind of experiment: Counter Screen for Luciferase-based Assay Positives. [Related pubchem assays: 620, 618, 411 ].
In assay [8] the target is Glyceraldehyde-3-phosphate dehydrogenase (Homo sapiens, UniProt P04406).
Chain of Glyceraldehyde-3-phosphate dehydrogenase (P04406 whole entry): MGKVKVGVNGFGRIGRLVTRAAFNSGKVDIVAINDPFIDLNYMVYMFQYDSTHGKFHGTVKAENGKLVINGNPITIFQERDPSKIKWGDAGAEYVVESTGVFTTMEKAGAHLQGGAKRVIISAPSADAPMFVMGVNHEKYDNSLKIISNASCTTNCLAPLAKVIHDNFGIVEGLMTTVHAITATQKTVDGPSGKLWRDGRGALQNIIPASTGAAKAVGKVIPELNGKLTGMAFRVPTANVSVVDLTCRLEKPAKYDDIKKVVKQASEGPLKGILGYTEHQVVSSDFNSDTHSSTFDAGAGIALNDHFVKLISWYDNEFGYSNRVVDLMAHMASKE
A further assay has as its system HT-1080. As to the kind of experiment: cytotoxicity in HT1080 fibrosarcoma cells, cell-based, fluorescence readout (AID 620). It counts as functional. Conditions: Homo sapiens.

Counter-ions that a name gives are not always drawn. The source made the active and inactive calls.

Chain of Luciferin 4-monooxygenase (P08659 whole entry): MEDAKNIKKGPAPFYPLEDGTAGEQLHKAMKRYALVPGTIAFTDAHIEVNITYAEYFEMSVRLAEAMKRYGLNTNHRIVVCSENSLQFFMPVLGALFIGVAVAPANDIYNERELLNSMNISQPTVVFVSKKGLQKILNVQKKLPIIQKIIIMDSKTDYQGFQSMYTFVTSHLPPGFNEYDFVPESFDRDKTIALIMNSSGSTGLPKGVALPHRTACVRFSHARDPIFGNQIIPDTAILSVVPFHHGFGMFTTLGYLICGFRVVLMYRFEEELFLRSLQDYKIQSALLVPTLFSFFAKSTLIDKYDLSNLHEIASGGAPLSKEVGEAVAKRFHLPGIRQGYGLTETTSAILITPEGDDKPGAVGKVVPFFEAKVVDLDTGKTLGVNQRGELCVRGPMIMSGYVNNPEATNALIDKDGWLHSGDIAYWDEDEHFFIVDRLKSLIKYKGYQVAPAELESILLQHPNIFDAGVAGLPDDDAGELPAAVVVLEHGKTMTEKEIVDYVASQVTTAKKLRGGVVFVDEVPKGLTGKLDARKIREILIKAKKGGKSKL
Chain of Procathepsin L (P07711 whole entry): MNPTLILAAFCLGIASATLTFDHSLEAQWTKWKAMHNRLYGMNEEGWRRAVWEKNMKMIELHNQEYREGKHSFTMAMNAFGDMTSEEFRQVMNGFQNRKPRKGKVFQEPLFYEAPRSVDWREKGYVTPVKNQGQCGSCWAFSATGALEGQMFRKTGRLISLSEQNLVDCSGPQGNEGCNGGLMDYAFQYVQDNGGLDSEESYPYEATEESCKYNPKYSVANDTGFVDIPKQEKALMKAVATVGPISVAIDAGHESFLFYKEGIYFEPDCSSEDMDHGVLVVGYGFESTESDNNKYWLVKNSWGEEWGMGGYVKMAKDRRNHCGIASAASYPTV
Chain of Voltage-gated inwardly rectifying potassium channel KCNH2 (Q12809 whole entry): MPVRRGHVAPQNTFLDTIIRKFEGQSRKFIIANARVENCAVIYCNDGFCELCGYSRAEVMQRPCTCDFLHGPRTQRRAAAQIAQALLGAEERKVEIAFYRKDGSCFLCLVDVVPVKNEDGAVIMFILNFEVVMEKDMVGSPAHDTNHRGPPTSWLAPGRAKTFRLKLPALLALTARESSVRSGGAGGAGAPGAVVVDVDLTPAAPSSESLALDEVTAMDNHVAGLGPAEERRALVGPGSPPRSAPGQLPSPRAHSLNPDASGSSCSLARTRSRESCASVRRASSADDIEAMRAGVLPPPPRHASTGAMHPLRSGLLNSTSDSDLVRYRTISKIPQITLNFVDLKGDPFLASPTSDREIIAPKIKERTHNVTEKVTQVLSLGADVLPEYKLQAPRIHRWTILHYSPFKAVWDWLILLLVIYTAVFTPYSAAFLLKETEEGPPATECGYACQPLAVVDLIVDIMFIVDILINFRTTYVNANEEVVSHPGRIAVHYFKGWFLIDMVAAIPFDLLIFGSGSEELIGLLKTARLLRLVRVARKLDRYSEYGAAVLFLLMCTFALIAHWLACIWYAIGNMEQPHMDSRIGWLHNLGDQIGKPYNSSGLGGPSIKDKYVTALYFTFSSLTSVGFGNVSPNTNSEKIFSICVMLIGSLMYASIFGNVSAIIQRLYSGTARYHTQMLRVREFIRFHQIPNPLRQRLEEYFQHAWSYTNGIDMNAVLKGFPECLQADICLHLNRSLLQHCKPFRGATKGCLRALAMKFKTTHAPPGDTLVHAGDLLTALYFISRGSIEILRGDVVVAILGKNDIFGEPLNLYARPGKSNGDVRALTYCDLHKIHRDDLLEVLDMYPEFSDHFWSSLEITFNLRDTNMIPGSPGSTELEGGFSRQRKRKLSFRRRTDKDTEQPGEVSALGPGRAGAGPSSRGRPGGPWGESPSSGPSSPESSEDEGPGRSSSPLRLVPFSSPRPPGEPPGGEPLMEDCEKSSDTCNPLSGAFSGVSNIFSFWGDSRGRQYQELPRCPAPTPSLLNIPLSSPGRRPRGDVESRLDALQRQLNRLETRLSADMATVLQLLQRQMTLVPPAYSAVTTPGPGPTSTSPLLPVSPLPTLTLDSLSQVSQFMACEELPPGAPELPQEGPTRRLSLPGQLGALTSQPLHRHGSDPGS

With `C=CCNc1nc(N2CCCC2)nc2ccccc12`, the IC50 in assay [1] is recorded as 11.8 µM (not active); in [2] it was > 35 µM (not active). Further, in [3], the EC50 was 1.19 µM (active).

In the case of `COc1ccc2nc(C)cc(SCC(=O)N/N=C/c3ccc(O)c(O)c3)c2c1`, the half-maximal inhibitory concentration (IC50) at Aspartyl aminopeptidase is 2.48 µM (active); at Procathepsin L, > 59.6 µM (not active); in assay [4], 23.9 µM (active); on Albumin, > 94.1 µM (inactive). Moreover, the AC50 in assay [5] is > 20 µM (inactive).

On to `CC(C)(C)[C@]1(O)CCN2C[C@H]3c4ccccc4CCc4cccc(c43)[C@@H]2C1` [BUTACLAMOL HYDROCHLORIDE], for which the EC50 is 3.98 µM (active) on Mucolipin-3 and > 29.9 µM (not active) at Ion channel NompC. For the same compound, the AC50 in assay [6] was 6.31 µM (active).

On to `COC(=O)c1cc(C(=O)Nn2cnnc2)cc([N+](=O)[O-])c1`, for which the IC50 at Aspartyl aminopeptidase is 2.37 µM (active); against Procathepsin L it was > 59.6 µM (not active).

As to `Cc1ccc(N=C2CCc3ccccc3N2)cc1`, the EC50 in assay [7] is 80.9 µM (active).

Take `COc1ccc(S(=O)(=O)N2CCCCCC2)cc1Br`: the EC50 at Mucolipin-3 is 2.67 µM (active); at Ion channel NompC, > 29.9 µM (not active).

For the compound `Cc1cc(C)c(C)c(S(=O)(=O)Nc2ccccc2C(=O)NCCCn2ccnc2)c1C`, the values for the EC50 (in assay [7]; in the assay with HT-1080) were 61.1 µM (active) and > 50 µM (not active), respectively. Moreover, the IC50 in assay [8] is given as > 100 µM (not active).
